Data as given in ChEMBL document CHEMBL5726679, “Cycloalkane derivatives” (2017).

Assay: Electrophysiological Assay: Current record was obtained by an automated patch clamp system “IonWorks Quattro (Molecular Devices Corporation)” in Population Patch Clamp mode. The operation was conducted in accordance with the operating procedure of the system. A Dulbecco's phosphate buffer containing calcium and magnesium (Sigma) was used as an extracellular fluid, and a low C1-buffer (100 mM K-gluconate, 40 mM KCl, 3.2 mM MgCl2, 5 mM EGTA, 5 mM Hepes, pH 7.3) was used as an intracellular fluid. A test compound was dissolved in dimethylsulfoxide (DMSO) to prepare a 30 mM stock solution, so as to produce 4-fold serial dilutions with the extracellular fluid for attaining a DMSO concentration of 0.3% in measurement.The hNav 1.7/β1/β2 cells cultured to a 70-80% confluent state in a T150 flask (Sumilon) were washed with PBS and subsequently with versene (Invitrogen Corp.), and collected by allowing to react with 0.05% trypsin (Invitrogen Corp.) at 37° C. for 3 minutes. After washing with a culture medium, the resultant cells were suspended in an extracellular fluid at a concentration of […] so as to be used for the measurement. The cell membrane was perforated by using an intracellular fluid including 100 μg/ml amphotericin B (Sigma).
Assay type: cell-based

- IC50: 280 nM
Compound: Cn1nccc1[C@H]1CCC[C@@H]1Oc1cc(F)c(S(=O)(=O)Nc2nncs2)cc1Cl (relative stereo)
